The text below walks through data of the supplement of paper PMC10307832.

What all share (assay): relative viability (nuclei count vs DMSO), 5 days (fraction); higher = more cells survive
Compound in the experiment “NVP-TAE684 + Foretinib”: COc1cc(N2CCC(N3CCN(C)CC3)CC2)ccc1Nc1ncc(Cl)c(Nc2ccccc2S(=O)(=O)C(C)C)n1 [NVP-TAE684] + COc1cc2c(Oc3ccc(NC(=O)C4(C(=O)Nc5ccc(F)cc5)CC4)cc3F)ccnc2cc1OCCCN1CCOCC1 [Foretinib] (partner 0.25 µM)
The gist of the method: (§1)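 Medians of duplicate plates are given as relative viability. That measure is the nuclei count in treated wells divided by the count in vehicle wells. Counts were taken on 4× images of lung cancer cell lines in 1536-well plates, 5 days after pin-tool dosing the day after seeding with one drug alone or a fixed anchor-drug dose plus five library-drug doses (not always all listed) in √10 steps.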

Compound in experiment [1]: C1=CC=C2C(=C1)N=C(S2)C(C#N)C3=NC(=NC=C3)NCCC4=CN=CC=C4 + CS(=O)(=O)N1CCN(Cc2cc3nc(-c4cccc5[nH]ncc45)nc(N4CCOCC4)c3s2)CC1 [Pictilisib] (partner 1 µM)
In a few lines: as §1

Compound in the experiment “Vandetanib + Luminespib”: COc1cc2/c(=N/c3ccc(Br)cc3F)nc[nH]c2cc1OCC1CCN(C)CC1 [Vandetanib] + CCNC(=O)c1noc(-c2cc(C(C)C)c(O)cc2O)c1-c1ccc(CN2CCOCC2)cc1 [Luminespib] (partner 0.01 µM)
The gist of the method: as §1

Compound in the experiment “Vandetanib + Trametinib”: COc1cc2/c(=N/c3ccc(Br)cc3F)nc[nH]c2cc1OCC1CCN(C)CC1 [Vandetanib] + CC(=O)Nc1cccc(-n2c(=O)n(C3CC3)c(=O)c3c(Nc4ccc(I)cc4F)n(C)c(=O)c(C)c32)c1 [Trametinib] (partner 0.02 µM)
In a few lines: as §1

Turning to SK-LU-1, the relative viability amounted to 0.947 with NVP-TAE684 + Foretinib (first compound 0.2 µM); 0.766 with NVP-TAE684 + Foretinib (first compound 0.6325 µM); 0.469 with NVP-TAE684 + Foretinib (first compound 2 µM); 0.643 in experiment [1] (first compound 0.01581 µM); 0.6 in experiment [1] (first compound 0.05 µM); 0.651 in experiment [1] (first compound 0.1581 µM). The relative viability in experiment [1] (first compound 0.5 µM) came out at 0.552; in the experiment with Vandetanib + Luminespib (first compound 0.02 µM) it was 0.202; with Vandetanib + Luminespib (first compound 0.06325 µM) it was 0.204; with Vandetanib + Luminespib (first compound 0.2 µM), 0.156; in the experiment with Vandetanib + Luminespib (first compound 0.6325 µM), 0.196; in the experiment with Vandetanib + Luminespib (first compound 2 µM), 0.217. Moreover, the relative viability was 0.453 with Vandetanib + Trametinib (first compound 0.02 µM); 0.344 in the experiment with Vandetanib + Trametinib (first compound 0.06325 µM); 0.562 in the experiment with Vandetanib + Trametinib (first compound 0.2 µM); 0.567 with Vandetanib + Trametinib (first compound 0.6325 µM); 0.458 with Vandetanib + Trametinib (first compound 2 µM).
As for SK-MES-1, the relative viability was determined as 0.597 in the experiment with NVP-TAE684 + Foretinib (first compound 0.2 µM); 1.12 with NVP-TAE684 + Foretinib (first compound 0.6325 µM); 0.774 with NVP-TAE684 + Foretinib (first compound 2 µM); 0.365 in experiment [1] (first compound 0.005 µM); 0.454 in experiment [1] (first compound 0.01581 µM); 0.277 in experiment [1] (first compound 0.05 µM). Besides, the relative viability in experiment [1] (first compound 0.1581 µM) is 0.352; in experiment [1] (first compound 0.5 µM), 0.374; with Vandetanib + Luminespib (first compound 0.02 µM), 0.788; with Vandetanib + Luminespib (first compound 0.06325 µM) it was 0.506; with Vandetanib + Luminespib (first compound 0.2 µM), 0.758; with Vandetanib + Luminespib (first compound 0.6325 µM), 0.594. Moreover, the relative viability came out at 0.388 with Vandetanib + Luminespib (first compound 2 µM); 0.593 in the experiment with Vandetanib + Trametinib (first compound 0.02 µM); 0.464 with Vandetanib + Trametinib (first compound 0.06325 µM); 0.304 in the experiment with Vandetanib + Trametinib (first compound 0.2 µM); 0.405 with Vandetanib + Trametinib (first compound 0.6325 µM); 0.357 with Vandetanib + Trametinib (first compound 2 µM).
As to SW 1573, the relative viability is 0.916 with NVP-TAE684 + Foretinib (first compound 0.2 µM); 0.951 with NVP-TAE684 + Foretinib (first compound 0.6325 µM); 0.599 with NVP-TAE684 + Foretinib (first compound 2 µM); 0.373 in experiment [1] (first compound 0.005 µM); 0.542 in experiment [1] (first compound 0.01581 µM); 0.505 in experiment [1] (first compound 0.05 µM). The relative viability in experiment [1] (first compound 0.1581 µM) is 0.497; in experiment [1] (first compound 0.5 µM), 0.497; in the experiment with Vandetanib + Luminespib (first compound 0.02 µM) it was 0.383; with Vandetanib + Luminespib (first compound 0.06325 µM), 0.227; in the experiment with Vandetanib + Luminespib (first compound 0.2 µM), 0.415; with Vandetanib + Luminespib (first compound 0.6325 µM) it was 0.24. Besides, the relative viability in the experiment with Vandetanib + Luminespib (first compound 2 µM) came out at 0.18; in the experiment with Vandetanib + Trametinib (first compound 0.02 µM), 0.59; in the experiment with Vandetanib + Trametinib (first compound 0.06325 µM), 0.568; with Vandetanib + Trametinib (first compound 0.6325 µM), 0.598; in the experiment with Vandetanib + Trametinib (first compound 2 µM), 0.615.
